Results: patent US12527835B2, “Brevican-binding peptides for brain tumor imaging” (The Brigham and Women's Hospital, Inc., priority 2018, dated 2026)
Where a SMILES comes first, the peptide text is derived from it. Where no end group is shown, it is not given here. [ ]: non-standard residue; d: D form. The star is where a group is joined. X1 = O=C(O)c1cc(NC(=S)*)ccc1-c1c2ccc(=O)cc-2oc2cc(O)ccc12; Ahx = NCCCCCC(=O)O

Experiments:
HEK-Bcan cells [1] = assay: Flow cytometry blocking study with 50× molar excess of unlabeled peptide; format: cell-based, human; settings: fluorescein-conjugated peptide 1 μM
Description: (§1) Cells were washed once with PBS and then, treated with 1 mL of 2.5 mM EDTA to dissociate the cells. The EDTA was removed by centrifugation, and PBS supplemented with 10% FBS was added to create a single-cell suspension. All peptide stocks were dissolved in DMSO, and stored at −20° C. in the dark. Cells were incubated with each peptide (at the desired final concentration, between 1-10 μM) for 3 hrs at 37° C. in the dark under constant rotation. After incubation, cells were washed 3× with PBS with 10% FBS (by centrifugation at 7000 rpm for 3 mins each). Then, cells were resuspended in 3.7% formaldehyde for fixation, and finally washed once with PBS. Cells were evaluated for peptide uptake (mean fluorescence intensity) by flow cytometry (10,000-20,000 events).
For blocking studies, cells were dissociated as described above and resuspended in cold PBS with 10% FBS. Cells were then incubated with a 50× molar excess of unlabeled peptide for 10 mins on ice, before adding the corresponding FITC-labeled peptide at a final concentration of 1 μM and incubated for 1.5 hrs on ice. Cells were then washed with cold PBS with 10% FBS, fixed and analyzed by flow cytometry.

BT188 glioma stem cells = assay: Peptide uptake in BT188 (BΔg-high) versus BT145 (BΔg-low) glioma stem cells, fluorescence imaging; format: cell-based, human; settings: fluorescein-labeled peptides, 5 μM
Excerpt: FIGS. 3A-I. Peptide characterization for BΔg specificity in glioma stem cells. (a) Table summary listing the properties of 7 peptides (composed of 8 D-amino acid residues, SEQ ID NOs:3-9, in order of appearance) that were isolated from the OBOC library screen. MW=molecular weight; KD=Kyte-Doolittle scale for amino acid hydropathy (positive scores indicate […]) (Kyte and Doolittle, J. Mol. Biol. 157, 105-132 (1982)). (b) Chemical structure showing the linkage between the peptide and FITC. (c) Western blot analysis showing the level of BΔg and Bcan in human embryo kidney (HEK) cells, and Bcan-overexpressing HEK cells (HEK-Bcan). […] Each group was normalized to a no-blocking (vehicle) control. Statistics were performed using multiple t-tests, and significance was measured in comparison to each vehicle control (p<0.0001). (e) Uptake of fluorescein-labeled BTP-2, 7, 8, 9, and 10 (at 5 μM conc.) in BT188 (BΔg-high) or BT145 (BΔg-low) glioma stem cells (GSCs). Western blot analysis on the top right confirms the BΔg expression level. […] Statistics were performed using the two-way ANOVA and Tukey's Multiple Comparison test. (f) Chemical structure showing the linkage between the peptide and Cy5.5 dye. (g) Western blot analysis showing the expression of BΔg in GBM-6 cells, with negligible BΔg level in astrocytes or neural progenitor cells (NPC). (h) Graph showing the cell uptake ranking of the top 3 peptide candidates, BTP-7, 8 and 9 in GBM-6 cells as determined by flow cytometry analysis with s.d. error bars (5 μM conc.; nevents=20,000 cells; nexperiment=5). Each group is normalized to the control scramble peptide (Scr-8). Statistics were performed using the one-way ANOVA and Tukey's Multiple Comparison test (significance were measured in comparison to the Scr-8 control). (i) Bar graph showing the uptake of BTP-7, 8 and 9 in GBM-6 cells and NPC with 95% confidence interval error bars (1 μM conc.; nevents=20,000 cells). Statistics were performed using the two-way ANOVA and Sidak's Multiple Comparison test.

[2] = Solubility in aqueous solutions
HEK-Bcan cells [3] = assay: Flow cytometry cell uptake, HEK-Bcan versus regular HEK cells; format: cell-based, human; settings: Cy5.5-conjugated peptides, 5 μM
Description: as §1

GBM-6 cells = assay: Flow cytometry cell uptake in GBM-6 cells; format: cell-based, human
Description: as §1

intracranial GBM-6 tumor = assay: Intracranial GBM-6 tumor uptake analysis in nude mice; format: in vivo, mouse; settings: i.v. tail vein, 100 μL of 500 μM
Description: For intracranial tumor implantation, animals were injected with 100,000 GBM-6 cells in the right frontal lobe of the mouse brain. Briefly, nude mice (6-8 weeks) were anaesthetized by i.p. injection with ketamine/xylazine/acepromazine mixed in 0.9% NaCl saline solution. Then, the mice heads were mounted onto a stereotactic frame, and sterilized by swabbing with iodine solution. An 8-10 mm sagittal incision was made with a scalpel, and the bregma of the skull was identified. A Hamilton syringe containing GBM-6 cells (in PBS; 3 μL volume) was inserted into the coronal suture of the skull at the following coordinates from the bregma: 2 mm right and 0.5 mm forward. The tip of the needle was lowered/implanted into the brain (3.5 mm distance). GBM-6 cells were injected slowly (0.1 μL per 10 seconds). After that, the needle was retracted, and the skin around the incision was sutured back together. Mice were allowed to recover after surgery (meloxicam were given as analgesia post-surgery). […] After 8 hrs, mice were sacrificed and their brains excised, cryosectioned, stained with Hoechst dye and imaged by fluorescence microscopy. […] The mean Cy5.5 fluorescence intensity of the tumor was performed on ImageJ and compared with the mean fluorescence intensity on the non-tumor area on the contralateral (left) side of the brain.

[4] = In vivo analysis of BBB permeability in non-tumor bearing mice; set-up: species or system mouse; settings: i.v., 100 μL of 100 μM, 4 hrs
Description: To measure BBB penetration, naïve nude mice were injected intravenously via the tail vein with either Cy5.5-labeled BTP-7 or a scramble (Cy5.5-Scr-7) peptide (100 μL of 100 μM peptide solution). 4 hrs later, mice were injected with 100 μL of 50 mg/mL TRITC-dextran (155 kDa) via the tail vein. Mice were euthanized after 30 mins, and their brains excised, frozen and cryo-sectioned into 16 μm slices. Tissue sections from the frontal lobe were imaged by confocal microscopy using a 20× objective. Areas with high TRITC (red in original) signal indicate regions of high perfusion (i.e. blood vessels). Cy5.5 (peptide) intensity was measured in areas outside of visible TRITC signal to ensure that only peptide intensity in the brain parenchyma (peptide that has successfully extravasated from the vessels and accumulated in the brain tissues) was quantified.

[5] = healthy mice, 4 hours post-intravenous administration, IVIS
Description: The lyophilized BTP-7-Cy5.5 powders were dissolved to a final concentration of 10 mM in DMSO by mass. The peptide was then diluted to a concentration of 100 μM in a solution of 50:50 polyethylene glycol (PEG)-300:0.9% sodium chloride (v/v) irrigation solution. A 100 μL dose of each peptide solution was administered intravenously via the tail vein into healthy 8-week old female nude mice. After 4 hours, 100 μL of 50 mg/mL tetramethylrhodamine isothiocyanate-labeled dextran (155 kDa) in 0.9% sodium chloride was injected via the tail vein. Mice were sacrificed 30 min later by cervical dislocation. The brain, heart, lungs, kidneys, spleen, and liver were excised from each mouse, frozen on dry ice and imaged using an In Vivo Imaging System (Perkin Elmer) at an excitation of 640 nm. Using Living Image software, regions of interest were drawn around each organ and the total radiant efficiency of Cy5.5 from each organ was quantified.

[6] = target: T1, recombinant BΔg protein (deglycosylated brevican) (Homo sapiens, UniProt Q96GW7); assay: Octet steady state binding affinity to recombinant BΔg; settings: KD of labeled versus unlabeled peptide
T1 construct: purchased R&D Systems 4009-BC-050
T1 sequence (Q96GW7 23-911): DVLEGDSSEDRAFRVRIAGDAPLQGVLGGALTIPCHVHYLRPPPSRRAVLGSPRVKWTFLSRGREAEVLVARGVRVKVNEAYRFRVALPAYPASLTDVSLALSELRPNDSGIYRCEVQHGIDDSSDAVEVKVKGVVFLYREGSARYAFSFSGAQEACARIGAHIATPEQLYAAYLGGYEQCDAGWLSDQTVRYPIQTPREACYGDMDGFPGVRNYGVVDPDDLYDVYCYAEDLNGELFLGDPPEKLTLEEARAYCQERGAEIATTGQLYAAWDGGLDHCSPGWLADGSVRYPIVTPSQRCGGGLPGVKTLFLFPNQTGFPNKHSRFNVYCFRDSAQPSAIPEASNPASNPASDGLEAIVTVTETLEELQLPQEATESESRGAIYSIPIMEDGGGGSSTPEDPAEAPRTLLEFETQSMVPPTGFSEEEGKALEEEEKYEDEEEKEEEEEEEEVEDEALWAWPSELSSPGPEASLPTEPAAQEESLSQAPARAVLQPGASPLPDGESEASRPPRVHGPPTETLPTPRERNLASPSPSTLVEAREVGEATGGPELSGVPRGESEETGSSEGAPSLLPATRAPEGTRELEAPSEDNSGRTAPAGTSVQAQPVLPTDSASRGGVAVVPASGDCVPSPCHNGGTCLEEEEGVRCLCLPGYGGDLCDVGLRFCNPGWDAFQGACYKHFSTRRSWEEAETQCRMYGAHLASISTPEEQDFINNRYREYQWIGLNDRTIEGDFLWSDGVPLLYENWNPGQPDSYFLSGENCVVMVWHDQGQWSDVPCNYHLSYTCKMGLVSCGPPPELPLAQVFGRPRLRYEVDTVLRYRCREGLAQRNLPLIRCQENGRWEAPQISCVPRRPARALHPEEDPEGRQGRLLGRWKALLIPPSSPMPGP
Description: A ForteBio OctetRed384 instrument was used to study the binding kinetics of each peptide to recombinant human brevican (re-suspended in PBS and 0.1 mM EDTA, pH 6.8). The brevican protein was deglycosylated prior to experimental use in water+0.05% tween, PI, sialidase, 0-glycosidase, N-glycosidase in sodium acetate [200 mM], NaCl [250 mM], Tris-HCl [200 mM], pH 7.5.) in the presence of protease inhibitor overnight at 4° C. (this entire composition will be referred to as ‘de-glycosylation buffer’). […] The final volume for all the solutions was 80 μl/well. Assays were performed at 30° C. in solid black 384-well plates (Geiger Bio-One). Prior to beginning, Ni-NTA biosensors were soaked for 10 min in working buffer. Before loading the protein onto each biosensor, a baseline was established in working buffer for 60 s. Deglycosylated brevican (50 μg/ml BΔg; His-tagged) was loaded on the surface of each biosensors for 180 s. […] Reference biosensors were also included in the plate as internal controls, where biosensors were exposed to the ‘de-glycosylation buffer’ lacking brevican protein during the loading step. A 60 s biosensor washing step was applied. Then, biosensors were exposed to the analyte (peptide) in working buffer (ranging between 0-10 μM BTP) for 300 s during the ‘association’ step. Finally, the biosensors were exposed to working buffer (without peptide) during the ‘dissociation’ step for 600 s. Binding affinity of each peptide was assessed through steady state analysis, where the response unit was plotted over peptide concentration. All data was plotted and curves were fitted using the non-linear ‘one-site specific binding’ fit, and the dissociation constant (KD) value was calculated using the GraphPad Prism software.
Binding kinetics analyses were performed using the Octet RED platform (Forte Bio) to measure the binding affinity of BTP-7, 8 and 9 to purified recombinant BΔg protein.

[7] = target: T2, glycosylated isoform of normal brevican (Bcan) (Homo sapiens, UniProt Q96GW7); assay: Octet steady state binding to fully glycosylated brevican (control); settings: Octet steady state analysis
T2 construct: purchased R&D Systems 4009-BC-050
T2 sequence (Q96GW7 23-911): T1 sequence (Q96GW7 23-911)

BTP-2: BΔg-targeting peptide of 8 D-amino acid residues from OBOC screen; sequence only in FIG. 3A ([dW][dR][dK][dA][dF][dT]G[dY]; not fully specified)
uptake in HEK-Bcan cells in the presence of the blocking peptide (HEK-Bcan cells [1]): reduced uptake
uptake in BT188 GSCs compared with BT145 GSCs (BT188 glioma stem cells): greater uptake
solubility in aqueous solutions compared to the other peptides [2]: more insoluble in aqueous solutions

CC(C)[C@@H](NC(=O)[C@@H](Cc1c[nH]cn1)NC(=O)CNC(=O)[C@@H](Cc1c[nH]c2ccccc12)NC(=O)[C@@H](CCCCN)NC(=O)[C@H](N)[C@H](C)O)C(=O)N[C@H](CC(N)=O)C(=O)N[C@H](CCCCN)C(=O)NCCCCCC(=O)N[C@@H](Cc1cn(CCCNC(=O)CCCCC[N+]2=C(/C=C/C=C/C=C3/N(C)c4ccc5ccccc5c4C3(C)C)C(C)(C)c3c2ccc2ccccc32)nn1)C(N)=O [BTP-7-Cy5.5]
uptake in HEK-Bcan cells compared with regular HEK cells (HEK-Bcan cells [3]): significantly higher
uptake in GBM-6 GSCs compared with astrocytes (GBM-6 cells; Cy5.5-conjugated peptides): significantly higher
uptake in GBM-6 cells at 4° C. compared to 37° C. (GBM-6 cells; Cy5.5-conjugated peptides, 5 μM, inhibition of endocytosis): significantly reduced
cell uptake ranking in GBM-6 cells (GBM-6 cells; Cy5.5-labeled, 5 μM, normalized to Scr-8): highest uptake
tumor uptake compared to the control Cy5.5 dye (without peptide) (intracranial GBM-6 tumor; brain cryo-sections, mean Cy5.5 intensity in tumor): more than 10 times
fluorescence intensity of tumor compared to the contralateral area (intracranial GBM-6 tumor; tumor-to-non-tumor ratio): 4 times
accumulation in the brain parenchyma outside of regions of high perfusion ([4]; healthy non-tumor bearing mice, confocal microscopy): accumulated within the brain parenchyma
level of extravasation across the BBB compared with Scr-7 ([4]; mean Cy5.5 intensity in parenchyma): higher that of Scr-7
fluorescence intensity in liver and kidneys [5]: highest fluorescence intensity
uptake in brain and heart compared to other organs [5]: relatively low uptake

CC(C)[C@@H](NC(=O)[C@@H](Cc1c[nH]cn1)NC(=O)CNC(=O)[C@@H](Cc1c[nH]c2ccccc12)NC(=O)[C@@H](CCCCN)NC(=O)[C@H](N)[C@H](C)O)C(=O)N[C@H](CC(N)=O)C(=O)N[C@H](CCCCN)C(=O)NCCCCCC(=O)N[C@@H](CCCCNC(=S)Nc1ccc(-c2c3ccc(=O)cc-3oc3cc(O)ccc23)c(C(=O)O)c1)C(N)=O [BTP-7 conjugated to a fluorescein dye] (H-[dT][dK][dW]G[dH][dV][dN][dK][Ahx]K(X1)-NH2)
binding affinity relative to the unlabeled BTP-7 (times less) [6]: more than 10 times
binding to the glycosylated isoform of normal brevican [7]: does not bind
